Biological target: T1, CbMip (Coxiella burnetii, UniProt P51752)
T1 construct: gene mip
Test: biochemical

T1 sequence (P51752 22-230 limits assumed): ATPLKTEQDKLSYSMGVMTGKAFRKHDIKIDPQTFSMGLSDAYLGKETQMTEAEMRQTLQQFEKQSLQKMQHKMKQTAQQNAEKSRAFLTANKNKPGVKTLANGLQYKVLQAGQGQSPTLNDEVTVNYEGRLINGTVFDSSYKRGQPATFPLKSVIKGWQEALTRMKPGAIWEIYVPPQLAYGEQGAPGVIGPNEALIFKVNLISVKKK

O=C(O[C@@H](Cc1ccccc1)C(=O)NCc1cccnc1)C1CCCCN1S(=O)(=O)Cc1ccccc1 (some centres unmarked) [ANCH37]
Ki: 4.6 ± 0.9 µM

O=C(NCCOC(=O)[C@@H]1CCCCN1S(=O)(=O)Cc1ccccc1)c1cccnc1 [SF235]
Ki: 18 ± 4 µM
